We go through 2 compounds from patent publication US12616692B2, “Method of achieving HIV viral remission using long-acting antiretroviral agents” (ViiV Healthcare Company, priority 2020, dated 2026).

For data set [1] the following is noted: rhesus monkey, in vivo.
The next data set relates to HIV. As to conditions: cited from earlier work.
The conditions of data set [2]: 50 mg/kg CAB LA, 200 mg/kg RPV intramuscularly once a month; cited from earlier work.

Turning to `C[C@H]1CO[C@@H]2Cn3cc(C(=O)NCc4ccc(F)cc4F)c(=O)c(O)c3C(=O)N12` [CAB, cabotegravir], in data set [1], the “Time after the last dose over which plasma concentration declined to undetectable levels (remained detected)” value is 4-7 months. Also, the “Protein-adjusted concentration required for 90% viral inhibition” value in the data set on HIV was 0.166 µg/mL. Also, the “Plasma concentration relative to protein-adjusted concentration required for 90% viral inhibition” value in data set [2] was “well above”.

In the case of `Cc1cc(/C=C/C#N)cc(C)c1Nc1ccnc(Nc2ccc(C#N)cc2)n1` [RPV, rilpivirine], in data set [1], the “Time after the last dose over which plasma concentration declined to undetectable levels (remained detected)” value is on record as 4-7 months. The “Plasma concentration relative to protein-adjusted concentration required for 90% viral inhibition” value in data set [2] is listed as “well above”.
